Legend:
barley = assay: Test B preemergence/postemergence greenhouse plant response rating 0 to 10; type: in vivo, Hordeum vulgare; conditions: 0 to 10 scale
Outline: (§1)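 Test chemicals, dissolved in a non-phytotoxic solvent, were applied to soil at planting and, at the same time, over foliage of seedlings at the one to four leaf stage.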

barnyardgrass = assay: as above; type: in vivo, Echinochloa crus-galli; conditions: 0 to 10 scale
Outline: as §1

chickweed [1] = assay: as above; type: in vivo, Stellaria media; conditions: 0 to 10 scale
Outline: as §1

corn = assay: as above; type: in vivo, Zea mays; conditions: 0 to 10 scale
Outline: as §1

crabgrass [2] = assay: as above; type: in vivo, Digitaria spp.; conditions: 0 to 10 scale
Outline: as §1

giant foxtail [3] = assay: as above; type: in vivo, Setaria faberii; conditions: 0 to 10 scale
Outline: as §1

rape = assay: as above; type: in vivo, Brassica napus; conditions: 0 to 10 scale
Outline: as §1

sorghum = assay: as above; type: in vivo, Sorghum bicolor; conditions: 0 to 10 scale
Outline: as §1

wheat = assay: as above; type: in vivo, Triticum aestivum; conditions: 0 to 10 scale
Outline: as §1

bedstraw = assay: Test C preemergence/postemergence greenhouse plant response rating 0 to 100; type: in vivo, Galium aparine; conditions: POSTEMERGENCE
Outline: (§2)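 Compounds in non-phytotoxic solvent applied preemergence to sandy loam one day after planting, postemergence at the 1–4 leaf stage, or to ~2.5 cm floodwater over silt loam.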

chickweed [4] = assay: as above; type: in vivo, Stellaria media; conditions: POSTEMERGENCE; for Plant response rating, Chickweed: 0 to 100 scale
Outline: as §2

crabgrass [5] = assay: as above; type: in vivo, Digitaria sanguinalis; conditions: POSTEMERGENCE; for Plant response rating, Crabgrass: 0 to 100 scale
Outline: as §2

downy brome = assay: as above; type: in vivo, Bromus tectorum; conditions: POSTEMERGENCE; for Plant response rating Downy Brome: 0 to 100 scale
Outline: as §2

giant foxtail [6] = assay: as above; type: in vivo, Setaria faberii; conditions: POSTEMERGENCE; for Plant response rating, Giant foxtail: 0 to 100 scale
Outline: as §2

wild buckwheat = assay: as above; type: in vivo, Polygonum convolvulus; conditions: POSTEMERGENCE; for Plant response rating, Wild buckwheat: 0 to 100 scale
Outline: as §2

wild oat = assay: as above; type: in vivo, Avena fatua; conditions: POSTEMERGENCE; for Plant response rating, Wild oat: 0 to 100 scale
Outline: as §2

rice = assay: Test C flood test plant response rating 0 to 100; type: in vivo, Oryza sativa; conditions: for Plant response rating (0 to 100), Rice Japonica: under POSTEMERGENCE head (flood test species); for Plant response rating Rice Japonica: flood test species listed under POSTEMERGENCE, 0 to 100 scale
Outline: as §2

duck salad = assay: Test C flood test plant response rating 0 to 100; type: in vivo, Heteranthera limosa; conditions: for Plant response rating (0 to 100), Duck salad: under POSTEMERGENCE head (flood test species); for Plant response rating Duck salad: flood test species listed under POSTEMERGENCE, 0 to 100 scale
Outline: as §2

For C=C(Cl)COc1cc(-c2nn3c(c2Cl)CCCC3)c(F)cc1Cl [Compound 40], the “Plant response rating, Barley” value (barley; POSTEMERGENCE, Rate 50 g/ha) was 4, the “Plant response rating, Barley” value (barley; POSTEMERGENCE, Rate 200 g/ha) was 5 and the “Plant response rating, Barley” value (barley; PREEMERGENCE, Rate 50 g/ha) was 0. For the same compound, the “Plant response rating, Barley” value (barley; Rate 200 g/ha, PREEMERGENCE) was 1, the “Plant response rating, Barnyardgrass” value (barnyardgrass; POSTEMERGENCE, Rate 50 g/ha) was 4 and the “Plant response rating, Barnyardgrass” value (barnyardgrass; POSTEMERGENCE, Rate 200 g/ha) was 4. The “Plant response rating, Barnyardgrass” value (barnyardgrass; PREEMERGENCE, Rate 50 g/ha) was 1, the “Plant response rating, Barnyardgrass” value (barnyardgrass; Rate 200 g/ha, PREEMERGENCE) was 3 and the “Plant response rating, Chickweed” value (chickweed [1]; POSTEMERGENCE, Rate 50 g/ha) was 10. The “Plant response rating, Chickweed” value (chickweed [1]; POSTEMERGENCE, Rate 200 g/ha) was 10, the “Plant response rating, Chickweed” value (chickweed [1]; PREEMERGENCE, Rate 50 g/ha) was 0 and the “Plant response rating, Chickweed” value (chickweed [1]; Rate 200 g/ha, PREEMERGENCE) was 5. For the same compound, the “Plant response rating, Corn” value (corn; POSTEMERGENCE, Rate 50 g/ha) was 4, the “Plant response rating, Corn” value (corn; POSTEMERGENCE, Rate 200 g/ha) was 5 and the “Plant response rating, Corn” value (corn; PREEMERGENCE, Rate 50 g/ha) was 0. The “Plant response rating, Corn” value (corn; Rate 200 g/ha, PREEMERGENCE) was 1, the “Plant response rating, Crabgrass” value (crabgrass [2]; POSTEMERGENCE, Rate 50 g/ha) was 4 and the “Plant response rating, Crabgrass” value (crabgrass [2]; POSTEMERGENCE, Rate 200 g/ha) was 5. For the same compound, the “Plant response rating, Crabgrass” value (crabgrass [2]; PREEMERGENCE, Rate 50 g/ha) was 0, the “Plant response rating, Crabgrass” value (crabgrass [2]; Rate 200 g/ha, PREEMERGENCE) was 8 and the “Plant response rating, Giant foxtail” value (giant foxtail [3]; POSTEMERGENCE, Rate 50 g/ha) was 5. For the same compound, the “Plant response rating, Giant foxtail” value (giant foxtail [3]; PREEMERGENCE, Rate 50 g/ha) was 9, the “Plant response rating, Giant foxtail” value (giant foxtail [3]; Rate 200 g/ha, POSTEMERGENCE) was 6 and the “Plant response rating, Giant foxtail” value (giant foxtail [3]; Rate 200 g/ha, PREEMERGENCE) was 9. The “Plant response rating, Rape” value (rape; POSTEMERGENCE, Rate 50 g/ha) was 4, the “Plant response rating, Rape” value (rape; PREEMERGENCE, Rate 50 g/ha) was 8 and the “Plant response rating, Rape” value (rape; Rate 200 g/ha, POSTEMERGENCE) was 8. For the same compound, the “Plant response rating, Rape” value (rape; Rate 200 g/ha, PREEMERGENCE) was 6, the “Plant response rating, Sorghum” value (sorghum; POSTEMERGENCE, Rate 50 g/ha) was 4 and the “Plant response rating, Sorghum” value (sorghum; PREEMERGENCE, Rate 50 g/ha) was 0. For the same compound, the “Plant response rating, Sorghum” value (sorghum; Rate 200 g/ha, POSTEMERGENCE) was 5, the “Plant response rating, Sorghum” value (sorghum; Rate 200 g/ha, PREEMERGENCE) was 1 and the “Plant response rating, Wheat” value (wheat; POSTEMERGENCE, Rate 50 g/ha) was 4. For the same compound, the “Plant response rating, Wheat” value (wheat; PREEMERGENCE, Rate 50 g/ha) was 0, the “Plant response rating, Wheat” value (wheat; Rate 200 g/ha, POSTEMERGENCE) was 6 and the “Plant response rating, Wheat” value (wheat; Rate 200 g/ha, PREEMERGENCE) was 2. The “Plant response rating, Bedstraw” value (bedstraw; 125 g/ha, 0 to 100 scale) was 60, the “Plant response rating (0 to 100), Bedstraw” value (bedstraw; Rate 16 g/ha) was 30 and the “Plant response rating (0 to 100), Bedstraw” value (bedstraw; Rate 31 g/ha) was 30. The “Plant response rating, Chickweed” value (chickweed [4]; 62 g/ha) was 60, the “Plant response rating, Chickweed” value (chickweed [4]; 125 g/ha) was 90 and the “Plant response rating (0 to 100), Chickweed” value (chickweed [4]; Rate 16 g/ha) was 30. The “Plant response rating (0 to 100), Chickweed” value (chickweed [4]; Rate 31 g/ha) was 30, the “Plant response rating, Crabgrass” value (crabgrass [5]; 62 g/ha) was 10 and the “Plant response rating, Crabgrass” value (crabgrass [5]; 125 g/ha) was 10. The “Plant response rating (0 to 100), Crabgrass” value (crabgrass [5]; Rate 16 g/ha) was 10, the “Plant response rating (0 to 100), Crabgrass” value (crabgrass [5]; Rate 31 g/ha) was 10 and the “Plant response rating Downy Brome” value (downy brome; 62 g/ha) was 50. For the same compound, the “Plant response rating Downy Brome” value (downy brome; 125 g/ha) was 60, the “Plant response rating (0 to 100), Downy Brome” value (downy brome; Rate 16 g/ha) was 30 and the “Plant response rating (0 to 100), Downy Brome” value (downy brome; Rate 31 g/ha) was 40. For the same compound, the “Plant response rating, Giant foxtail” value (giant foxtail [6]; 62 g/ha) was 60, the “Plant response rating, Giant foxtail” value (giant foxtail [6]; 125 g/ha) was 70 and the “Plant response rating (0 to 100), Giant foxtail” value (giant foxtail [6]; Rate 16 g/ha) was 30. For the same compound, the “Plant response rating (0 to 100), Giant foxtail” value (giant foxtail [6]; Rate 31 g/ha) was 40, the “Plant response rating, Wild buckwheat” value (wild buckwheat; 62 g/ha) was 100 and the “Plant response rating, Wild buckwheat” value (wild buckwheat; 125 g/ha) was 100. For the same compound, the “Plant response rating (0 to 100), Wild buckwheat” value (wild buckwheat; Rate 16 g/ha) was 50, the “Plant response rating (0 to 100), Wild buckwheat” value (wild buckwheat; Rate 31 g/ha) was 50 and the “Plant response rating, Wild oat” value (wild oat; 62 g/ha) was 30. The “Plant response rating, Wild oat” value (wild oat; 125 g/ha) was 40, the “Plant response rating (0 to 100), Wild oat” value (wild oat; Rate 16 g/ha) was 20 and the “Plant response rating (0 to 100), Wild oat” value (wild oat; Rate 31 g/ha) was 20. The “Plant response rating (0 to 100), Rice Japonica” value (rice; Rate 16 g/ha) was 35, the “Plant response rating (0 to 100), Rice Japonica” value (rice; Rate 31 g/ha) was 35 and the “Plant response rating Rice Japonica” value (rice; 62 g/ha) was 40. The “Plant response rating Rice Japonica” value (rice; 125 g/ha) was 40, the “Plant response rating (0 to 100), Duck salad” value (duck salad; Rate 16 g/ha) was 0 and the “Plant response rating (0 to 100), Duck salad” value (duck salad; Rate 31 g/ha) was 65. For the same compound, the “Plant response rating Duck salad” value (duck salad; 62 g/ha) was 80 and the “Plant response rating Duck salad” value (duck salad; 125 g/ha) was 85.
